Results as given in patent US11248254B2, “Method and system employing distinguishable polymerases for detecting ternary complexes and identifying cognate nucleotides” (Omniome, Inc., priority 2016, dated 2022).

Assays:
Format in all cases: binding
[1] = target: T1, ternary complex of primed template nucleic acid, Bst DNA polymerase large fragment and cognate nucleotide (Geobacillus stearothermophilus, UniProt P52026); assay: Biolayer interferometry: formation and retention of ternary complexes with different non-catalytic metal ions; conditions: 2 mM test metal ion; for binding signal when ternary complexes formed on primed template nucleic acid: 100 μM correct nucleotide, 200 nM Bst polymerase, 60 s binding (FIG. 2); for ternary complex decay / stability following washing: wash without polymerase, 10 μM correct dNTP, 100 μM incorrect dNTP, 300 s (FIG. 2); for ternary complex binding signal following a wash step, expressed as a percentage of the maximum signal: wash in absence of non-bound polymerase, baseline = signal at initial nucleotide contact
T1 construct: 200 nM unlabeled Bst DNA polymerase large fragment
T1 sequence (P52026 289-876 limits assumed): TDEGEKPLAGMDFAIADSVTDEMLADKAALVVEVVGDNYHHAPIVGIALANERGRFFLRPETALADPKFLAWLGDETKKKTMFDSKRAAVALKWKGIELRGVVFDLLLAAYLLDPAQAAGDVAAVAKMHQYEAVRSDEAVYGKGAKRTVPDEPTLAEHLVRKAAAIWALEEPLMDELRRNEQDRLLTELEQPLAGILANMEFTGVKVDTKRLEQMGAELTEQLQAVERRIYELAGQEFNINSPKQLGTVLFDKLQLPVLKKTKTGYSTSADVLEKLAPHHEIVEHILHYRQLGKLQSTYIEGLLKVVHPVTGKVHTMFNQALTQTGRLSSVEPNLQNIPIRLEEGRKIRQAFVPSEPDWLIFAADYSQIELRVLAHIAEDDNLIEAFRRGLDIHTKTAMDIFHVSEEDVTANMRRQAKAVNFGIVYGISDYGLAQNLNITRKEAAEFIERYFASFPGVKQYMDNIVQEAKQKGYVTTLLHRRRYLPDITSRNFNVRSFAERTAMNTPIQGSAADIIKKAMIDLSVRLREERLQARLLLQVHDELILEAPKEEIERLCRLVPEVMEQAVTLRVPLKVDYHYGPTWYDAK
From the text: A FORTEBIO® (Menlo Park, Calif.) Octet instrument employing biolayer interferometry to measure binding reactions at the surface of a fiber optic tip was used in a multiwell plate format to assess formation and stability of ternary complexes in the presence of different non-catalytic metal ions. Template nucleic acid strands biotinylated at their 5′-ends were used to immobilize the primed template nucleic acid onto fiber optic tips functionalized with streptavidin (SA) according to standard procedures. Tips were washed in a Tris-buffered solution containing 200 mM KCl, 160 mM potassium glutamate, and 0.01% Tween-20 before commencing the cycling protocol. Binding reactions conducted using 2 mM of the test metal ion (i.e., 2 mM of the metal salt) were carried out in serial fashion using examination buffers that contained Tris-HCl (pH 8.0), 220 mM KCl, 160 mM potassium glutamate, 0.01% Tween-20, 1 mM β-mercaptoethanol, 100 μg/ml BSA, the correct nucleotide at a concentration of 100 μM, and 200 nM unlabeled Bst DNA polymerase large fragment. Salts used in the testing procedure included: SrCl2, Na3VO4, EuCl3, and CuSO4. Examination buffers in this procedure were supplemented with DMSO and betaine to control DNA secondary structure. Binding steps were carried out for 60 seconds, and were followed by wash steps using a buffer that omitted polymerase, but included 10 μM of the correct dNTP, 100 μM of the incorrect dNTP, and 2 mM of the test metal ion. Retention of the ternary complex was measured over the course of 300 seconds. Surviving ternary complexes were stripped from the primed template by exposure to a solution containing 30 mM Tris-HCl (pH 8.0), 1 M NaCl, 4 mM EDTA, 4 mM DTPA, 0.2% SDS, 0.05% Tween-20, and 3% Tween-80 for a period of 30 seconds. This was followed by exposure to a regeneration solution made Tris-HCl (pH 8.0), 220 mM KCl, 160 mM potassium glutamate, 0.01% Tween-20, 1 mM β-mercaptoethanol, 100 μg/ml BSA for 20 seconds before commencing binding of polymerase and cognate nucleotide in the presence of the next test metal ion.

[2] = target: T2, Bsu DNA polymerase large fragment with primed template nucleic acid (Bacillus subtilis, UniProt O34996); assay: Biolayer interferometry: discrimination between ternary (cognate dCTP) and binary (non-cognate dGTP) complex formation, KCl titration; conditions: 2 mM stabilizing cation, KCl 100-650 mM, potassium glutamate 80-640 mM (FIGS. 3, 4)
T2 construct: 350 U/ml Bsu DNA polymerase large fragment
T2 sequence (O34996 297-880 limits assumed): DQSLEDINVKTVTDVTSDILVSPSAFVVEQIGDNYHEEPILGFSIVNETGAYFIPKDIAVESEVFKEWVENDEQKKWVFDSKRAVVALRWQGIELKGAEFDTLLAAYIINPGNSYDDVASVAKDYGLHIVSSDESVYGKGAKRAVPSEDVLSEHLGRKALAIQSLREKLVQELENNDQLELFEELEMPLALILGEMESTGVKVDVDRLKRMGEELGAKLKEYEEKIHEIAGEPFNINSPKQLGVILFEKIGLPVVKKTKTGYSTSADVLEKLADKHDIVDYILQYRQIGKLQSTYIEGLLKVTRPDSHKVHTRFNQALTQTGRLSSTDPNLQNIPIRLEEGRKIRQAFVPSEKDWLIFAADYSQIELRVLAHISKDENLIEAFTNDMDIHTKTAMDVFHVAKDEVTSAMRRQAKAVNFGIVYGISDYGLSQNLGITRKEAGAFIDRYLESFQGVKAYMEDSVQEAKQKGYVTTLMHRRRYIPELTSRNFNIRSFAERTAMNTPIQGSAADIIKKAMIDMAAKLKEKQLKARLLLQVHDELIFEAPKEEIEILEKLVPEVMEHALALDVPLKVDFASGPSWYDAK
From the text: Materials and methods used in the procedure were as follows. The FORTEBIO® OCTET® instrument employing biolayer interferometry was used to measure binding reactions at the surface of a fiber optic tip in a multiwell plate format to investigate differential formation of binary and ternary complexes. Template strands biotinylated at their 5′-ends were used to immobilize the primed template nucleic acid onto fiber optic tips functionalized with streptavidin (SA) according to standard procedures. The next correct nucleotide for the biotinylated template DNA was dCTP (with dGTP being used as the model incorrect nucleotide). Tips were first equilibrated in a Tris-buffered solution containing 30 mM Tris-HCl (pH 8.0), and 0.1 mM EDTA before commencing the cycling protocol. […] When using a single contacting step to effect binding of polymerase and nucleotide to the primed template nucleic acid, the binding step was 60 seconds long, with binding interactions being monitored continuously. […] Results from interferometry monitoring were analyzed to identify formation of ternary complexes (i.e., identifying cognate nucleotide) or binary complexes (i.e., identifying non-cognate nucleotide).

[3] = tested on: tested polymerases with primed template nucleic acid; assay: Discrimination between correct and incorrect nucleotides at higher metal cation concentration; conditions: cation greater than about 5 mM; 150 mM to 300 mM monovalent metal cations

Compound | binding signal when ternary complexes formed on primed template nucleic acid [1] | ternary complex decay / stability following washing [1] | ternary complex binding signal following a wash step, expressed as a percentage of the maximum signal [1] | discrimination between ternary and binary complex formation [2] | ability of polymerase to discriminate between correct and incorrect nucleotides [3]
O=S(=O)([O-])[O-].[Cu+2] [Cu^2+, CuSO4] | moderately high binding signals | rapid decay | – | – | –
[Cl][Eu]([Cl])[Cl] [Eu^3+, EuCl3] | high binding signals | substantially more stable | about 80% | good discrimination between ternary and binary complex formation was achievable | reduced abilities to discriminate between correct and incorrect nucleotides
[Ni+2] [Ni^2+] | – | – | – | – | This was not the case
[Cl-].[Cl-].[Sr+2] [Sr^2+, SrCl2] | high binding signals | slower than observed with V^5+ and Cu^2+ ions | about 40% | – | This was not the case
[Tb+3] [Tb^3+] | – | substantially similar to the use of Eu^3+ ions | substantially similar to trials conducted using Eu^3+ cations | good discrimination between ternary and binary complex formation was achievable | reduced abilities to discriminate between correct and incorrect nucleotides
[Na+].[Na+].[Na+].[O]=[V]([O-])([O-])[O-] [V^5+, Na3VO4] | moderately high binding signals | rapid decay | – | – | –
